Source: US7776888B2, “Herbicides” (Syngenta Crop Protection, Inc., priority 2002, dated 2010)

Assays:
Format in all cases: in vivo
[1] = test system: Brachiaria; experiment: Comparison test with prior art compound, post-emergence herbicidal action (Example B3); conditions: 15 gr/ha, rating scale 10=total damage, 0=no action
Protocol: (§1) […] The test plants are then grown on in a greenhouse under optimum conditions. After a test duration of about 18 days, the test is evaluated in accordance with a scale of ten ratings (10=total damage, 0=no action). Ratings of from 10 to 6 (especially from 10 to 7) indicate good to very good herbicidal action. […] Examples of the good herbicidal action of the compounds are given in Table B2: The post-emergence herbicidal action of compound No. 1.0411 according to the invention is compared with compound “A” from WO 01/94339:

[2] = test system: Galium; experiment: as above; conditions: 15 gr/ha, rating scale 10=total damage, 0=no action
Protocol: as §1

[3] = test system: Polygonum; experiment: as above; conditions: 15 gr/ha, rating scale 10=total damage, 0=no action
Protocol: as §1

[4] = test system: Rottboelia; experiment: as above; conditions: 15 gr/ha, rating scale 10=total damage, 0=no action
Protocol: as §1

[5] = test system: Sida; experiment: as above; conditions: 15 gr/ha, rating scale 10=total damage, 0=no action
Protocol: as §1

[6] = test system: Sinapis; experiment: as above; conditions: 15 gr/ha, rating scale 10=total damage, 0=no action
Protocol: as §1

[7] = test system: Abutilon; experiment: Pre-emergence herbicidal action (Example B1); conditions: 250 gr/ha, sprayed immediately after sowing, evaluated after 3 weeks; scale of ten ratings 10=total damage, 0=no action
Description: (§2) Monocotyledonous and dicotyledonous test plants are sown in standard soil in plastic pots. Immediately after sowing, the test compounds, in the form of an aqueous suspension (prepared from a 25% wettable powder (Example F3, b) according to WO 97/34485) or in the form of an emulsion (prepared from a 25% emulsifiable concentrate (Example F1, c)), are applied by spraying in a concentration corresponding to 125 g or 250 g of active ingredient/ha (500 liters of water/ha). The test plants are then grown in a greenhouse under optimum conditions. After a test duration of 3 weeks, the test is evaluated in accordance with a scale of ten ratings (10=total damage, 0=no action). Ratings of from 10 to 6 (especially from 10 to 8) indicate good to very good herbicidal action.

[8] = test system: Amaranthus; experiment: Pre-emergence herbicidal action (Example B1); conditions: 250 gr/ha, sprayed immediately after sowing, evaluated after 3 weeks; scale of ten ratings 10=total damage, 0=no action
Description: as §2

[9] = test system: Chenopodium; experiment: Pre-emergence herbicidal action (Example B1); conditions: 250 gr/ha, sprayed immediately after sowing, evaluated after 3 weeks; scale of ten ratings 10=total damage, 0=no action
Description: as §2

[10] = test system: Echinochloa; experiment: Pre-emergence herbicidal action (Example B1); conditions: 250 gr/ha, sprayed immediately after sowing, evaluated after 3 weeks; scale of ten ratings 10=total damage, 0=no action
Description: as §2

[11] = test system: Kochia; experiment: Pre-emergence herbicidal action (Example B1); conditions: 250 gr/ha, sprayed immediately after sowing, evaluated after 3 weeks; scale of ten ratings 10=total damage, 0=no action
Description: as §2

[12] = test system: Panicum; experiment: Pre-emergence herbicidal action (Example B1); conditions: 250 gr/ha, sprayed immediately after sowing, evaluated after 3 weeks; scale of ten ratings 10=total damage, 0=no action
Description: as §2

[13] = test system: Amaranthus; experiment: Post-emergence herbicidal action (Example B2); conditions: 250 gr/ha, sprayed at 4- to 6-leaf stage, evaluated after about 18 days; scale 10=total damage, 0=no action
Protocol: (§3) In a greenhouse, monocotyledonous and dicotyledonous test plants are grown in standard soil in plastic pots and at the 4- to 6-leaf stage are sprayed with an aqueous suspension of the test compounds of formula I prepared from a 25% wettable powder (Example F3, b) according to WO 97/34485) or with an emulsion of the test compounds of formula I prepared from a 25% emulsifiable concentrate (Example F1, c) according to WO 97/34485), in a concentration corresponding to 125 g or 250 g of active ingredient/ha (500 liters of water/ha). The test plants are then grown on in a greenhouse under optimum conditions. After a test duration of about 18 days, the test is evaluated in accordance with a scale of ten ratings (10=total damage, 0=no action). Ratings of from 10 to 6 (especially from 10 to 7) indicate good to very good herbicidal action.

[14] = test system: Chenopodium; experiment: Post-emergence herbicidal action (Example B2); conditions: 250 gr/ha, sprayed at 4- to 6-leaf stage, evaluated after about 18 days; scale 10=total damage, 0=no action
Protocol: as §3

[15] = test system: Ipomea; experiment: Post-emergence herbicidal action (Example B2); conditions: 250 gr/ha, sprayed at 4- to 6-leaf stage, evaluated after about 18 days; scale 10=total damage, 0=no action
Protocol: as §3

[16] = test system: Stellaria; experiment: Post-emergence herbicidal action (Example B2); conditions: 250 gr/ha, sprayed at 4- to 6-leaf stage, evaluated after about 18 days; scale 10=total damage, 0=no action
Protocol: as §3

[17] = test system: weeds; experiment: Comparison test post-emergence (Example B3), overall; conditions: rate of application of 15 g/ha
Description: This enhanced action was not to be expected in view of the structural similarity of the compounds.

Compound | Post-emergence action: Brachiaria [1] | Post-emergence action: Galium [2] | Post-emergence action: Polygonum [3] | Post-emergence action: Rottboelia [4] | Post-emergence action: Sida [5] | Post-emergence action: Sinapis [6] | Pre-emergence herbicidal action: Abutilon [7] | Pre-emergence herbicidal action: Amaranthus [8] | Pre-emergence herbicidal action: Chenopodium [9] | Pre-emergence herbicidal action: Echinochloa [10] | Pre-emergence herbicidal action: Kochia [11] | Pre-emergence herbicidal action: Panicum [12] | Post-emergence herbicidal action: Amaranthus [13] | Post-emergence herbicidal action: Chenopodium [14] | Post-emergence herbicidal action: Ipomea [15] | Post-emergence herbicidal action: Stellaria [16] | herbicidal action on the weeds compared with compound A (in words) [17]
COCCOCc1nc(C(F)(F)F)ccc1C(=O)C1C(=O)C2CCC(C2)C1=O (stereo not shown) [A, reference compound] | 4 | 5 | 5 | 0 | 7 | 6 |  |  |  |  |  |  |  |  |  |  | 
COCCOCc1nc(C(F)(F)F)ccc1C(=O)C1=C(O)C2C=CC(C2)C1=O (stereo not shown) [1.0411] | 10 | 6 | 8 | 3 | 8 | 8 | 10 | 10 | 10 | 9 | 10 | 10 | 9 | 10 | 10 | 9 | considerably better herbicidal action
COCCOCc1nc(C(F)(F)F)ccc1C(=O)C1=C(O)C2(C)C=CC(C)(O2)C1=O (stereo not shown) [1.0301] |  |  |  |  |  |  | 7 | 8 | 9 | 7 | 8 | 7 | 8 | 8 | 8 | 8 | 
Cc1nc(C(F)(F)F)ccc1C(=O)C1=C(O)C2C=CC(C1=O)C21CC1 (stereo not shown) [1.1153] |  |  |  |  |  |  |  |  |  |  |  |  | 7 | 8 | 8 | 10 | 
